Laboratory results published in patent US6486185B1, “3-heteroarylidene-2-indolinone protein kinase inhibitors” (Sugen, Inc., priority 1997, dated 2002).

These molecules were tested against T1, EGFR (Homo sapiens, UniProt P00533) (assay: EGF receptor ELISA in cells engineered to express human EGF-R). Details: 50% inhibition of PTK activity over control.
T1 construct: expressed in transfected cells; host or cells: NIH 3T3/C7
T1 sequence (P00533 25-1210): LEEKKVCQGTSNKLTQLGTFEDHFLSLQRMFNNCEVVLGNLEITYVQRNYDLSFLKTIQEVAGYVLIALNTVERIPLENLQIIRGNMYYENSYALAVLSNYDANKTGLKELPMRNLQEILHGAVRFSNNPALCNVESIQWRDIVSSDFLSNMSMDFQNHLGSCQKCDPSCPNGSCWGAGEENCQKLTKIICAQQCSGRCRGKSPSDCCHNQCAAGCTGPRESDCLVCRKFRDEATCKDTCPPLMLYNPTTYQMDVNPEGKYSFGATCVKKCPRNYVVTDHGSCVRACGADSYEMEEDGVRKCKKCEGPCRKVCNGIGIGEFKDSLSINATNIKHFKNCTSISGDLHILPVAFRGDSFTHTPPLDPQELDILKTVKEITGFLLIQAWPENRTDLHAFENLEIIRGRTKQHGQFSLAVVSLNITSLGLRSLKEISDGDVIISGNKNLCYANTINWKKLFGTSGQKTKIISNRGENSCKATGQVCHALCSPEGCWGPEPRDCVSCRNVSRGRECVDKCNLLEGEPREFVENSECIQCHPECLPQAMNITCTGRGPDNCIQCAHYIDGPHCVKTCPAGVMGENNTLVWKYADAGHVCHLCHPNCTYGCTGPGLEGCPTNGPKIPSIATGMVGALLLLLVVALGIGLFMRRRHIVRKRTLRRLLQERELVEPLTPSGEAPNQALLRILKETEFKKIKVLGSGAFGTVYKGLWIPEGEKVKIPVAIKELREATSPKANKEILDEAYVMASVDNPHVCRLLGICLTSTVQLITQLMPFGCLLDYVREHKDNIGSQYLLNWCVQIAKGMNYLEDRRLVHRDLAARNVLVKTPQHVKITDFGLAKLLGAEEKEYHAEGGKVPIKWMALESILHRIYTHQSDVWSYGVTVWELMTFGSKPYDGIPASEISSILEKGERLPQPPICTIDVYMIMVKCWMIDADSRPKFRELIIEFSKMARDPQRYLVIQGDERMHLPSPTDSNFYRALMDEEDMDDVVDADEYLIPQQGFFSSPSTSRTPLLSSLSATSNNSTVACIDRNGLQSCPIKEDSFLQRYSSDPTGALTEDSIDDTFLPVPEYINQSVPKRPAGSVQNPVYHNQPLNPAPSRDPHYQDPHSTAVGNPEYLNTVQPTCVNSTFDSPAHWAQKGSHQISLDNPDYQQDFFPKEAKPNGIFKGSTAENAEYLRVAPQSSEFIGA
Assay type: cell-based
Method: The cellular/catalytic assays described herein are performed in an ELISA format. The general procedure is a follows: a compound is introduced to cells expressing the test kinase, either naturally or recombinantly, for some period of time after which, if the test kinase is a receptor, a ligand known to activate the receptor's activity is added. The cells are lysed and the lysate is transferred to the wells of an ELISA plate previously coated with a specific antibody recognizing the substrate of the enzymatic phosphorylation reaction. Non-substrate components of the cell lysate are washed away and the amount of phosphorylation on the substrate is detected with an antibody specifically recognizing phosphotyrosine compared with control cells that were not contacted with a test compound.
EGF Receptor kinase activity in cells genetically engineered to express human EGF-R can be measured as described below:
The following materials and reagents are used
a. EGF Ligand: stock concentration=16.5 μM; EGF 201, TOYOBO, Co., Ltd. Japan.
b. 05-101 (UBI) (a monoclonal antibody recognizing an EGFR extracellular domain).
c. Anti-phosphotyosine antibody (anti-Ptyr) (polyclonal).
d. Detection antibody: Goat anti-rabbit lgG horse radish peroxidase conjugate, TAGO, Inc., Burlingame, Calif.
Keep solution in dark at 4 C until used.
The following protocol is used:
1. Coat ELISA plates (Corning, 96 well, Cat. #25805-96) with 05-101 antibody at 0.5 μg per well in PBS, 150 μL final volume/well, and store overnight at 4° C. Coated plates are good for up to 10 days when stored at 4° C.
2. On day of use, remove coating buffer and replace with blocking buffer (5% Carnation Instant NonFat Dry Milk in PBS). Incubate the plate, shaking, at room temperature (about 23° C. to 25° C.) for 30 minutes. Just prior to use, remove blocking buffer and wash plate 4 times with TBST buffer.
1. NIH 3T3/C7 cell line (Honegger, et al., Cell 51:199-209, 1987) can be use for this assay.
2. Choose dishes having 80-90% confluence for the experiment. Trypsinize cells and stop reaction by adding 10% CS DMEM medium. Suspend cells in DMEM medium (10% CS DMEM medium) and centrifuge once at 1000 rpm at room temperature for 5 minutes.
3. Resuspend cells in seeding medium (DMEM, 0.5% bovine serum), and count the cells using trypan blue. Viability above 90% is acceptable. Seed cells in DMEM medium (0.5% bovine serum) at a density of 10,000 cells per well, 100 μL per well, in a 96 well microtiter plate. Incubate seeded cells in 5% CO2 at 37° C. for about 40 hours.
1. Check seeded cells for contamination using an inverted microscope. Dilute drug stock (10 mg/mL in DMSO) 1:10 in DMEM medium, then transfer 5 μL to a test well for a final drug dilution of 1:200 and a final DMSO concentration of 1%. Control wells receive DMSO alone. Incubate in 5% CO2 at 37° C. for one hour.
2. Prepare EGF ligand: dilute stock EGF in DMEM so that upon transfer of 10 μL dilute EGF (1:12 dilution), 25 nM final concentration is attained.
3. Prepare fresh 10 mL HNTG* sufficient for 100 μL per well wherein HNTG* comprises: HNTG stock (2.0 mL), milli-Q H2O (7.3 mL), EDTA, 100 mM, pH 7.0 (0.5 mL), Na3VO4 0.5 M (0.1 mL) and Na4(P2O7), 0.2 M (0.1 mL).
5. After two hours incubation with drug, add prepared EGF ligand to cells, 10 μL per well, to yield a final concentration of 25 nM. Control wells receive DMEM alone. Incubate, shaking, at room temperature, for 5 minutes.
6. Remove drug, EGF, and DMEM. Wash cells twice with PBS. Transfer HNTG* to cells, 100 μL per well. Place on ice for 5 minutes. Meanwhile, remove blocking buffer from other ELISA plate and wash with TBST as described above.
7. With a pipette tip securely fitted to a micropipettor, scrape cells from plate and homogenize cell material by repeatedly aspirating and dispensing the HNTG* lysis buffer. Transfer lysate to a coated, blocked, and washed ELISA plate. Incubate shaking at room temperature for one hour.
8. Remove lysate and wash 4 times with TBST. […]
Molecule `CCOC(=O)c1c(C)[nH]c(C=C2C(=O)Nc3ccc(Br)cc32)c1C` [3-(2,4-dimethyl-3-ethoxycarbonylpyrrol-5-methylidenyl)-5-bromo-2-indolinone] has an IC50 of over 25 µM.
Molecule `COC(=O)CCc1c[nH]c(C=C2C(=O)Nc3cc(OC)c(OC)cc32)c1C` [3-[4-(2-methoxycarbonylethyl)-3-methylpyrrol-2-methylidenyl]-5,6-dimethoxy-2-indolinone] has an IC50 of over 50 µM.
`CCOC(=O)c1c[nH]c(C=C2C(=O)Nc3ccccc32)c1C` [3-(4-ethoxycarbonyl-3-methylpyrrol-2-methylidenyl)-2-indolinone] was tested, and the IC50 was over 100 µM.
Work on `CCOC(=O)CCc1c(C(=O)OCC)[nH]c(C=C2C(=O)Nc3ccccc32)c1CC(=O)OCC` [3-[2-ethoxycarbonyl-3-(2-ethoxycarbonylethyl)-4-ethoxycarbonylmethyl)pyrrol-5-methylidenyl)-2-indolinone] yielded an IC50 of over 10 µM.
`CCOC(=O)c1[nH]c(C=C2C(=O)Nc3ccccc32)c(C(C)=O)c1C` [3-(4-acetyl-2-ethoxycarbonyl-3-methylpyrrol-5-methylidenyl)-2-indolinone] gave an IC50 of over 10 µM.
`CC(=O)c1[nH]c(C=C2C(=O)Nc3ccccc32)c(C)c1C` [3-(2-acetyl-3,4-dimethylpyrrol-5-methylidenyl)-2-indolinone] showed an IC50 of over 100 µM.
Molecule `CCOC(=O)c1c(C)[nH]c(C=C2C(=O)Nc3ccc(NC(=O)c4ccc(C(=O)OC)cc4)cc32)c1C` [3-(2,4-dimethyl-3-ethoxycarbonylpyrrol-5-methylidenyl)-5-(4-methoxycarbonylbenzamido)-2-indolinone] has an IC50 of over 10 µM.
`COC(=O)Cc1c(Cl)[nH]c(C=C2C(=O)Nc3ccccc32)c1C(=O)OC` [3-(2-chloro-4-methoxycarbonyl-3-methoxycarbonylmethylpyrrol-5-methylidenyl)-2-indolinone] was tested, and the IC50 was over 50 µM.
Molecule `COC(=O)CCc1c[nH]c(C=C2C(=O)Nc3ccccc32)c1C` [3-[4-(2-methoxycarbonylethyl-3-methylpyrrol-2-methylidenyl]-2-indolinone] has an IC50 of over 100 µM.
For `Cc1c[nH]c(C=C2C(=O)Nc3ccccc32)c1CCC(=O)O` [3-[3-(2-carboxyethyl-4-methylpyrrol-2-methylidenyl]-2-indolinone], the IC50 was over 100 µM.
